Results as given in ChEMBL document CHEMBL2321869, “Ion channels as therapeutic targets: a drug discovery perspective” (J Med Chem, 2013).

Columns and labels:
[1] = target: T1, Sodium channel protein type 2 subunit alpha (Homo sapiens, UniProt Q99250); assay: Inhibition of human voltage-gated Na channel 1.2 by cell based patch clamp technique
[2] = target: T2, Sodium channel protein type 9 subunit alpha (Homo sapiens, UniProt Q15858); assay: Inhibition of human voltage-gated Na channel 1.7 by cell based patch clamp technique
[3] = target: Sodium channel protein type 5 subunit alpha (Homo sapiens, UniProt Q14524); assay: Inhibition of human voltage-gated Na channel 1.5 by cell based patch clamp technique
[4] = target: GABA-A receptor; alpha-3/beta-3/gamma-2 (Homo sapiens, UniProt P18507+P28472+P34903); assay: Modulation of human GABAA alpha3beta3gamma2 expressed in xenopus oocytes assessed as potentiation of GABA-evoked chloride currents; format: cell-based, Oocyte
[5] = target: GABA-A receptor; alpha-2/beta-3/gamma-2 (Homo sapiens, UniProt P18507+P28472+P47869); assay: Modulation of human GABAA alpha2beta3gamma2 expressed in xenopus oocytes assessed as potentiation of GABA-evoked chloride currents; format: cell-based, Oocyte
[6] = target: GABA-A receptor; alpha-1/beta-2/gamma-2 (Homo sapiens, UniProt P14867+P18507+P47870); assay: Modulation of human GABA-A alpha1beta2gamma2 expressed in xenopus oocytes assessed as potentiation of GABA-evoked chloride currents; format: cell-based, Oocyte
[7] = target: Gamma-aminobutyric acid receptor subunit alpha-5/beta-3/gamma-3 (Homo sapiens, UniProt P28472+P31644+Q99928); assay: Modulation of human GABAA alpha5beta3gamma3 expressed in xenopus oocytes assessed as potentiation of GABA-evoked chloride currents; format: cell-based, Oocyte
[8] = target: T3, Sodium channel protein type 3 subunit alpha (Rattus norvegicus, UniProt P08104); assay: Inhibition of rat voltage-gated Na channel 1.3 in dorsal root ganglion neurons by patch clamp technique; format: tissue-based
[9] = target: Sodium channel protein type 1 subunit alpha (Rattus norvegicus, UniProt P04774); assay: Inhibition of rat voltage-gated Na channel 1.1 in dorsal root ganglion neurons by patch clamp technique; format: tissue-based
[10] = target: Sodium channel protein type 10 subunit alpha (Rattus norvegicus, UniProt Q62968); assay: Binding affinity to voltage-gated Na channel 1.8 in Sprague-Dawley rat L4/L5 DRG neurons by patch-clamp technique
[11] = target: T2, Sodium channel protein type 9 subunit alpha; assay: Binding affinity to human inactivated voltage-gated Na channel 1.7 expressed in HEK293 cells by patch-clamp technique; format: cell-based
[12] = target: T3, Sodium channel protein type 3 subunit alpha; assay: Binding affinity to rat inactivated voltage-gated Na channel 1.3 expressed in human HEK293 cells by patch-clamp technique; format: cell-based
[13] = target: Potassium voltage-gated channel subfamily KQT member 1 (Homo sapiens, UniProt P51787); assay: Inhibition of voltage-gated K channel 7.1 (unknown origin)
[14] = target: Potassium voltage-gated channel subfamily A member 5 (Homo sapiens, UniProt P22460); assay: Inhibition of voltage-gated K channel 1.5 (unknown origin)
[15] = target: Voltage-gated inwardly rectifying potassium channel KCNH2 (Homo sapiens, UniProt Q12809); assay: Inhibition of human ERG channel
[16] = target: T2, Sodium channel protein type 9 subunit alpha; assay: Inhibition of voltage-gated Na channel 1.7 (unknown origin)
[17] = target: Sodium channel protein type 8 subunit alpha (Homo sapiens, UniProt Q9UQD0); assay: Inhibition of voltage-gated Na channel 1.6 (unknown origin)
[18] = target: Sodium channel protein type 4 subunit alpha (Homo sapiens, UniProt P35499); assay: Inhibition of voltage-gated Na channel 1.4 (unknown origin)
[19] = target: T1, Sodium channel protein type 2 subunit alpha; assay: Inhibition of voltage-gated Na channel 1.2 (unknown origin)
[20] = target: Sodium channel protein type 3 subunit alpha (Homo sapiens, UniProt Q9NY46); assay: Inhibition of voltage-gated Na channel 1.3 (unknown origin)
[21] = target: Sodium channel protein type 1 subunit alpha (Homo sapiens, UniProt P35498); assay: Inhibition of voltage-gated Na channel 1.1 (unknown origin)
Glutamate receptor 1 = Glutamate receptor 1 (Homo sapiens, UniProt P42261); assay: Agonist activity at GluA1 (unknown origin)

T2 sequence (Q15858 whole entry): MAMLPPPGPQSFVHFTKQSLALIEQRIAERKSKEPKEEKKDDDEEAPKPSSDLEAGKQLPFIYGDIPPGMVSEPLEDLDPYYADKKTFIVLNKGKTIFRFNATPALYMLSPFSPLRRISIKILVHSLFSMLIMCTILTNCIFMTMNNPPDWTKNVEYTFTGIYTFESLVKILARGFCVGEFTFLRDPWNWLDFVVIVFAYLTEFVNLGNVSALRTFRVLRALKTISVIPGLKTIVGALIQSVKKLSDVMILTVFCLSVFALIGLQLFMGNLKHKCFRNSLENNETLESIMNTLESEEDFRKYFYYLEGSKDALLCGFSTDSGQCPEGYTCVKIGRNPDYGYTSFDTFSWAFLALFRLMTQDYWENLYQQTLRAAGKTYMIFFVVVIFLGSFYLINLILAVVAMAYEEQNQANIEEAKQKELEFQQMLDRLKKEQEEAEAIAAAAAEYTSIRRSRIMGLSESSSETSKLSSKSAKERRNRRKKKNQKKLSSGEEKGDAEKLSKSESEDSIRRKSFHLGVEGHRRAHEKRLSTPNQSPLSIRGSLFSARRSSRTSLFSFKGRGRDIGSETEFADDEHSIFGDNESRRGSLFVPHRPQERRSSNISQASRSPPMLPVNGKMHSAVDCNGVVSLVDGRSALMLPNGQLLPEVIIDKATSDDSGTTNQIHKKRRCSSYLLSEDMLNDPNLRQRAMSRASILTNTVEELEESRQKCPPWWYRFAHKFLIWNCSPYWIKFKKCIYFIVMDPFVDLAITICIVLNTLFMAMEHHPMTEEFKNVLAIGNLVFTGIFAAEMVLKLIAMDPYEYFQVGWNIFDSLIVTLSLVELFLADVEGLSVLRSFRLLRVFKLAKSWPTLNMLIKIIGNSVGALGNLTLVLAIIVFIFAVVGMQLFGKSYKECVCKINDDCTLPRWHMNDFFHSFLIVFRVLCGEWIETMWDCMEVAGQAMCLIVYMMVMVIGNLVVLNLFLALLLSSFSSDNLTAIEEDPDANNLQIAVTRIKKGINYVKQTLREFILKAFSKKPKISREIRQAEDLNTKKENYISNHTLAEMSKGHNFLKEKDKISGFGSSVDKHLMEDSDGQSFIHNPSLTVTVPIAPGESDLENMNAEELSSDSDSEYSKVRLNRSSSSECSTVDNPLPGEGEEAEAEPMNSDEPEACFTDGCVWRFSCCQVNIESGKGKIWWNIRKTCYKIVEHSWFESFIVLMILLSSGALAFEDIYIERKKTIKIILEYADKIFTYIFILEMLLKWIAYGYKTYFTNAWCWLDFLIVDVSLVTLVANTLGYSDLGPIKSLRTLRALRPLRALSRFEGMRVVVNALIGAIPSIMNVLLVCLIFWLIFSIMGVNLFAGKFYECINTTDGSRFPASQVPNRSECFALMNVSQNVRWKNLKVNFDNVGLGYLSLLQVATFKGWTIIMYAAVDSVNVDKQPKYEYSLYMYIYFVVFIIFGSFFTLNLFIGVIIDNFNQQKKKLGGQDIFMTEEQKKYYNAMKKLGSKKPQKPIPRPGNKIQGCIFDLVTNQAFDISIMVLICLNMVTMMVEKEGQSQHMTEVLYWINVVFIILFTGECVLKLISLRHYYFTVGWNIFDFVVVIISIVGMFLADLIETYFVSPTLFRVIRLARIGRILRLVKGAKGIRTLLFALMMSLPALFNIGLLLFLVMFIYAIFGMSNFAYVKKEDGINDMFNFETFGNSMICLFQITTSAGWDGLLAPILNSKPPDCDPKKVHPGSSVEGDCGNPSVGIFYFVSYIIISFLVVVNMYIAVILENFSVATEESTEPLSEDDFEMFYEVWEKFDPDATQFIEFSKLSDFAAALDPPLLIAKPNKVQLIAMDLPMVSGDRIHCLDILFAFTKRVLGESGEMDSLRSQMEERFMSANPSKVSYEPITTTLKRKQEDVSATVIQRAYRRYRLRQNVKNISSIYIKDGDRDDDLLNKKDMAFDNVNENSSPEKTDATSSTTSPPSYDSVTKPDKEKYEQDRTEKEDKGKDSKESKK
T3 sequence (P08104 whole entry): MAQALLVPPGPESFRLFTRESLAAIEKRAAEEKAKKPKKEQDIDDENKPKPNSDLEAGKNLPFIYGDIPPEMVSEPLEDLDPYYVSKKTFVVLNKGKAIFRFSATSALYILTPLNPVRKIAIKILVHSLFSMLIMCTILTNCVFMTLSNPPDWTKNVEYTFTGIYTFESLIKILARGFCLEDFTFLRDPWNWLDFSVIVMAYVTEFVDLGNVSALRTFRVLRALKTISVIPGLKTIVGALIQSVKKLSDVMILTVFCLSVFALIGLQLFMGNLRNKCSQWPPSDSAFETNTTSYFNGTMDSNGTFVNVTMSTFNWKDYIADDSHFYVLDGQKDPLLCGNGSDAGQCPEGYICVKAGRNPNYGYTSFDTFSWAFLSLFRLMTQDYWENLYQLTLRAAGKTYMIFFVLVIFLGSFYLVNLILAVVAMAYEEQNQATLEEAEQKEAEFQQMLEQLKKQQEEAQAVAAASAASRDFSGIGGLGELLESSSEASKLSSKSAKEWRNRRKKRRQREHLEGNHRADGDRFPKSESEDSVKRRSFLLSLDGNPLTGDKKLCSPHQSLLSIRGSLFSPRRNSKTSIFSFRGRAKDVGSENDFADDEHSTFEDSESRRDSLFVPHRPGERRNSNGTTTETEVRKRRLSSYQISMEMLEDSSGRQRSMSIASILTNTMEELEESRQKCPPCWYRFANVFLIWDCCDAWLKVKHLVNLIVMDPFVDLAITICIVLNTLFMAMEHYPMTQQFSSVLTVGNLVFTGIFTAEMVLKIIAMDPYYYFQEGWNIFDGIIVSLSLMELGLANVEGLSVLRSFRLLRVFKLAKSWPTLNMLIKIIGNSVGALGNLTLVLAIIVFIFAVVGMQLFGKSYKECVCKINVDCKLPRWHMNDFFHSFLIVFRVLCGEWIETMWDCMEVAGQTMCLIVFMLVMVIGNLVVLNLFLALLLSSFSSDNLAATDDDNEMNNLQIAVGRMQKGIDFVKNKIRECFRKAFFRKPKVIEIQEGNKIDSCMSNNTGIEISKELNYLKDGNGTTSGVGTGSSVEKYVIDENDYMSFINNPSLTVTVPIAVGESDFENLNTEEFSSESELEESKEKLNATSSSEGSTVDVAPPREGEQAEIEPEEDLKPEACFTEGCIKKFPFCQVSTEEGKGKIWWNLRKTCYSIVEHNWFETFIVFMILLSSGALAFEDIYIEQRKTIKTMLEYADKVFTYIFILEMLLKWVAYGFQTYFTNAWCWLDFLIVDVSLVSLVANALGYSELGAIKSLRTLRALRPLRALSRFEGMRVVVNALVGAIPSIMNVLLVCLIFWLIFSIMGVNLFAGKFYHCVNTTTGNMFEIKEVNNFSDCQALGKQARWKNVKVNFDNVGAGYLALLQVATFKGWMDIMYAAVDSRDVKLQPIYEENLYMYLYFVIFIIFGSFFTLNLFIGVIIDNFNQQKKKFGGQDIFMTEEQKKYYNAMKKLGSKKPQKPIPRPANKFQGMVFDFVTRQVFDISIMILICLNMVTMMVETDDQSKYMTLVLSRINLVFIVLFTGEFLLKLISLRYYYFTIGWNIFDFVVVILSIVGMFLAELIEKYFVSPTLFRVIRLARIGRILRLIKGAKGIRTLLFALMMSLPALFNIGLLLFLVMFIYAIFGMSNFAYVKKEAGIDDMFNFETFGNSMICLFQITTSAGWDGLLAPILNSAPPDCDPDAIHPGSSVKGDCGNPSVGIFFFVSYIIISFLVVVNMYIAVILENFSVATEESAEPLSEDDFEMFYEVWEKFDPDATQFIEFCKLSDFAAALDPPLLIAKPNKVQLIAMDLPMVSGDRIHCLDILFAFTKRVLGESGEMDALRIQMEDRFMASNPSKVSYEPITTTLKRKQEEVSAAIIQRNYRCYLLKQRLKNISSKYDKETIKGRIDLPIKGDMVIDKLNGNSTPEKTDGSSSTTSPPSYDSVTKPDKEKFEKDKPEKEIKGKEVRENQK
Voltage-gated inwardly rectifying potassium channel KCNH2, sequence (Q12809 whole entry): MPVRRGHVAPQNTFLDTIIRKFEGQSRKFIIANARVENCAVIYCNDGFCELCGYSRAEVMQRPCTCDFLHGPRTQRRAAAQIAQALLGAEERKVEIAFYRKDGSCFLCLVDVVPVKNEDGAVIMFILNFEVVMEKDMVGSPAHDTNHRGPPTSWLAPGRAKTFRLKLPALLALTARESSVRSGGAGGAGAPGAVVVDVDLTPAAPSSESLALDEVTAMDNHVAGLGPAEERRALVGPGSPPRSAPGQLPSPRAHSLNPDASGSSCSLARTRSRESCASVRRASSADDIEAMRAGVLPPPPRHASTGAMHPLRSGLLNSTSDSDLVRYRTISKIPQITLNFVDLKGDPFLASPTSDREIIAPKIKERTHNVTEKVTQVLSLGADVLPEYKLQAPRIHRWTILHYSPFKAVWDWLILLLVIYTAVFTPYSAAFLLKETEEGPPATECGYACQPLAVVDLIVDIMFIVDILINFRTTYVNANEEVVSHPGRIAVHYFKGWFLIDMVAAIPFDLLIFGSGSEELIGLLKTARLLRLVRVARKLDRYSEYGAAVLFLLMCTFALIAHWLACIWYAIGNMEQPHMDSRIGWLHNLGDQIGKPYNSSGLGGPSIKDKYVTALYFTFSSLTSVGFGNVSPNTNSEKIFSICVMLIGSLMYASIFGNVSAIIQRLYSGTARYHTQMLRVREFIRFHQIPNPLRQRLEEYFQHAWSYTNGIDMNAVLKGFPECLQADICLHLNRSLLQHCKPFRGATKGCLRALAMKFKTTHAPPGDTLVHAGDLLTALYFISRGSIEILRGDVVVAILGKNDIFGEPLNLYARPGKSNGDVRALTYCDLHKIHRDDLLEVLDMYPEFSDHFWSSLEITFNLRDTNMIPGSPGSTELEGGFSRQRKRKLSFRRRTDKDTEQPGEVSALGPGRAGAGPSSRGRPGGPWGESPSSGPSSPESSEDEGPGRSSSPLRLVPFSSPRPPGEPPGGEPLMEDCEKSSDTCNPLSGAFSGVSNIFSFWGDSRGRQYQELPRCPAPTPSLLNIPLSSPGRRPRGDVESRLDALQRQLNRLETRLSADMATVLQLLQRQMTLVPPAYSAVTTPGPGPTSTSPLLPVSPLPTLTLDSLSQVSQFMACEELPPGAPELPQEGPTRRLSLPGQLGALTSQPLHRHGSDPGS

COc1cnc(-c2cccc3c2C[C@H](NC(=O)c2ccc(COCC(F)(F)F)nc2)CO3)cn1
IC50 [1]: > 33000 nM | IC50 [2]: 66 nM | IC50 [3]: 13000 nM

CCN(C(C)=O)c1cccc(-c2ccnc3c(C#N)cnn23)c1 [ZALEPLON]
EC50 [4]: > 1000 nM | EC50 [5]: 1630 nM | EC50 [6]: 290 nM | EC50 [7]: > 1000 nM

O=C1[C@@H](N2CC[C@H](c3cc(Cl)cc(Cl)c3)C2)CCN1c1ccc(S(=O)(=O)Nc2nccs2)cc1
IC50 [8]: < 2000 nM | IC50 [9]: < 2000 nM

COC[C@@H](NC(C)=O)C(=O)NCc1ccccc1 [LACOSAMIDE]
IC50 [10]: 16000 nM | IC50 [11]: 182 nM | IC50 [12]: 415 nM

NC(=O)C(c1ccccc1)(c1ccc(F)cc1)c1ccc(F)cc1 [SENICAPOC]
IC50 [13]: > 1000 nM | IC50 [14]: > 1000 nM | IC50 [15]: > 1000 nM | IC50 [16]: > 1000 nM | IC50 [17]: > 1000 nM | IC50 [18]: > 1000 nM | IC50 [19]: > 1000 nM | IC50 [20]: > 1000 nM | IC50 [21]: > 1000 nM

N[C@@H](C[C@@H](C/C=C/c1ccc2ccccc2c1)C(=O)O)C(=O)O
EC50 (Glutamate receptor 1): > 300000 nM
